Measurements: PubChem BioAssay (NCI)
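How tested: cells in 96-well plates exposed to compound for 48 hours at five concentrations. Here, GI50 denotes the concentration required for 50% inhibition of growth. TGI: total growth inhibition.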

Legend:
Assay in all cases: NCI-60 cell line screen, 48 h
CAKI-1 renal = tested on: CAKI-1 renal
COLO 205 colon = tested on: COLO 205 colon
HOP-92 NSCLC = tested on: HOP-92 NSCLC
HS 578T breast = tested on: HS 578T breast
M14 melanoma = tested on: M14 melanoma
OVCAR-3 ovarian = tested on: OVCAR-3 ovarian
PC-3 prostate = tested on: PC-3 prostate
SW-620 colon = tested on: SW-620 colon
TK-10 renal = tested on: TK-10 renal
UACC-257 melanoma = tested on: UACC-257 melanoma

| Compound | GI50 (CAKI-1 renal) | TGI (CAKI-1 renal) | GI50 (COLO 205 colon) | TGI (COLO 205 colon) | GI50 (HOP-92 NSCLC) | TGI (HOP-92 NSCLC) | GI50 (HS 578T breast) | TGI (HS 578T breast) | GI50 (M14 melanoma) | TGI (M14 melanoma) | GI50 (OVCAR-3 ovarian) | TGI (OVCAR-3 ovarian) | GI50 (PC-3 prostate) | TGI (PC-3 prostate) | GI50 (SW-620 colon) | TGI (SW-620 colon) | GI50 (TK-10 renal) | TGI (TK-10 renal) | GI50 (UACC-257 melanoma) | TGI (UACC-257 melanoma) |
| --- | --- | --- | --- | --- | --- | --- | --- | --- | --- | --- | --- | --- | --- | --- | --- | --- | --- | --- | --- | --- |
| COc1c(O)cc2c(c1CC=C(C)C)OC(=O)c1c(cc(O)c(CC=C(C)C)c1O)O2 | 4.32 µM | 8.61 µM | 4.51 µM | 8.45 µM | 4.08 µM | 7.78 µM | 2.96 µM | 7.4 µM | 4.22 µM | 8.5 µM | 3.83 µM | 7.2 µM | 4.87 µM | 9.7 µM | 3.42 µM | 7.05 µM | 5.49 µM | 11.7 µM | 4.06 µM | 7.67 µM |
| CC(C)[C@]12O[C@H]1[C@@H]1O[C@]13[C@]1(O[C@H]1C[C@H]1C4=C(CC[C@@]13C)C(=O)OC4)[C@@H]2OC(=O)OC(C)(C)C | 0.0226 µM | > 100 µM | 0.014 µM | 0.0319 µM | 0.0448 µM |  | 0.019 µM | 0.0713 µM | 0.0157 µM | 0.0336 µM | 0.0171 µM | 0.883 µM | 0.0238 µM | > 41.3 µM | < 0.01 µM | > 100 µM | 0.0329 µM | > 100 µM | 0.0176 µM | 0.0544 µM |
| COc1ccc(/C=C/C(=O)c2ccc(B(O)O)cc2)cc1O | 17.7 µM | > 70.8 µM | 16.2 µM | 32 µM | 3.46 µM | 29.8 µM | 12.6 µM | > 100 µM | 8.03 µM | 29.6 µM | 7.27 µM | 20.1 µM | 15 µM | 50.1 µM | 3.83 µM | 22 µM | 30.4 µM | > 67.6 µM | 21.6 µM | 59.3 µM |
| O=C(O)c1cc(C(=O)C(=O)c2cc(C(=O)O)c(O)c3ccccc23)c2ccccc2c1O |  | > 100 µM |  | > 100 µM |  | > 100 µM |  | > 100 µM |  | > 100 µM |  | > 100 µM |  | > 100 µM |  | > 100 µM |  | > 100 µM |  | > 100 µM |
| CC12OC(C(=O)C13CC3)C1C(=O)c3cccc(O)c3C(=O)C12 (centres undefined) | 3.43 µM | 11.1 µM | 15.5 µM | > 96.2 µM | 31.1 µM | > 100 µM | 25.8 µM | 82.1 µM | 24.6 µM | 63.5 µM | 2.49 µM | 19.9 µM | 10.3 µM | 34.3 µM | 4.41 µM | > 100 µM | 8.82 µM | 30.6 µM | 19.6 µM | 50.8 µM |
| CC(=O)NS(=O)(=O)c1ccc(-n2nc(-c3ccccc3)cc2-c2cc(O)ccc2O)cc1 | > 100 µM | > 100 µM | 44 µM | > 100 µM | > 100 µM | > 100 µM | > 100 µM | > 100 µM | 31.4 µM | > 100 µM | > 100 µM | > 100 µM | > 100 µM | > 100 µM | > 100 µM | > 100 µM | 10.9 µM | > 100 µM | > 100 µM | > 100 µM |
| O=C1/C(=C\c2ccc(Cl)cc2)CN(C(=O)c2ccccc2)C/C1=C\c1ccc(Cl)cc1 | 8.45 µM | > 100 µM | 3.45 µM | 10.5 µM | 7.18 µM | 55.9 µM | 2.92 µM | 9.17 µM | 2.63 µM | 7.39 µM | 2.43 µM | 5.49 µM | 2.57 µM | 10.1 µM | 1.75 µM | 5.01 µM | 3.59 µM | 14.1 µM | 5.51 µM | 33.9 µM |
| CCOC(=O)Nc1nc(-c2ccccc2)c(C)s1 |  | > 100 µM |  | > 100 µM |  | 90.5 µM |  | > 100 µM |  | > 100 µM |  | > 100 µM |  | > 100 µM |  | > 100 µM |  | > 100 µM |  | > 100 µM |
| NS(=O)(=O)c1ccc(N=Nc2c(O)[nH]c3cccc(CCc4ccncc4)c23)cc1 | > 25 µM | > 25 µM | > 25 µM | > 25 µM | > 25 µM | > 25 µM | > 25 µM | > 25 µM | > 25 µM | > 25 µM | > 25 µM | > 25 µM | > 25 µM | > 25 µM | > 25 µM | > 25 µM | > 25 µM | > 25 µM | > 25 µM | > 25 µM |
| Nc1nc(N)c2cc(Sc3ccc(Cl)cc3)ccc2n1 | 3.25 µM | 16.1 µM | 1.28 µM | 2.83 µM | 1.51 µM | 7 µM | 1.72 µM | 12.4 µM | 0.535 µM | 1.98 µM | 3.5 µM | 12.6 µM | 0.592 µM | 13.8 µM | 0.306 µM | 1.63 µM | 4.91 µM | 17.2 µM | 1.41 µM | 5.72 µM |
